According to patent publication US20210330611A1, “THERAPY FOR NEUROLOGICAL DISEASES/DISORDERS” (priority 2020, published 2021):
pIC50: −log10 of the molar value. Counter-ions that a name gives are not always drawn. Like-named read-outs stand apart in the source and are kept apart here.

Experiments:
[1] = system: fibrin-induced microglia activation; experiment: Image-based assay of fibrin-induced microglia activation (HTS and dose response); type: cell-based, rat; settings: for inhibition at 10 µM: read-out: Fibrin % inhibition
[2] = system: LPS-induced microglia activation; experiment: Image-based assay of LPS-induced microglia activation (HTS and dose response); type: cell-based, rat
[3] = system: fibrin- and LPS-induced microglia activation; experiment: cells; type: cell-based, rat; settings: for inhibition at 10 µM: Rattus norvegicus, Microglia
[4] = Rattus norvegicus, Microglia, read-out: LPS % inhibition
[5] = Rattus norvegicus, Microglia, primary microglia HTS, fibrin stimulation, compounds at 10 μM
[6] = Rattus norvegicus, Microglia, primary microglia HTS, LPS stimulation, compounds at 10 μM; read-out: LPS % inhibition
[7] = classification by fibrin and LPS inhibition, HTS at 10 μM
[8] = Rattus norvegicus, Microglia, primary microglia HTS, fibrin stimulation, activation = cell size >800 μm2
[9] = Rattus norvegicus, Microglia, 48 h, primary microglia HTS, LPS stimulation, activation = cell size >800 μm2; read-out: LPS % inhibition
[10] = quadrant by fibrin and LPS inhibition in HTS of 1907 compounds
[11] = Rattus norvegicus, Microglia, 48 h, read-out: LPS % inhibition
[12] = quadrant by fibrin and LPS inhibition, HTS at 10 μM
[13] = Rattus norvegicus, Microglia, primary microglia HTS, fibrin stimulation, increased cell size (>800 μm^2) as marker of activation
[14] = Rattus norvegicus, Microglia, 48 h, primary microglia HTS, LPS stimulation; increased cell size (>800 μm^2) as marker of activation; read-out: LPS % inhibition
[15] = primary microglia HTS, fibrin stimulation, increased cell size (>800 μm^2) as marker of activation
[16] = primary microglia HTS, LPS stimulation; increased cell size (>800 μm^2) as marker of activation
[17] = Rattus norvegicus, Microglia, primary microglia HTS, fibrin stimulation, cell size >800 μm2 as marker of activation
[18] = Rattus norvegicus, Microglia, 48 h; read-out: LPS % inhibition
[19] = classification by fibrin and LPS inhibition in HTS

OCCN(CCO)c1nc(N2CCCCC2)c2nc(N(CCO)CCO)nc(N3CCCCC3)c2n1 [Dipyridamole]
inhibition at 10 µM ([1]; Rattus norvegicus, Microglia): 11%
inhibition at 10 µM [2, 4]: 6%
Quadrant (FIG. 5b) [3]: Q4
LPS % cell toxicity (primary rat microglia; rat): 0%

O=C(O[C@@H]1C[C@@H]2C[C@H]3C[C@H](C1)N2CC3=O)c1c[nH]c2ccccc12 [Dolasetron]
inhibition at 10 µM [1, 5]: -19%
inhibition at 10 µM [2, 6]: -3%
Quadrant (FIG. 5b) [3, 7]: Q4
LPS % cell toxicity (primary rat microglia; rat): 0%

CC[C@H]1CN2CCc3cc(OC)c(OC)cc3[C@@H]2C[C@@H]1C[C@H]1NCCc2cc(OC)c(OC)cc21 [Emetine, Emetine Dihydrochloride]
Fibrin % inhibition [1]: 117%
LPS % inhibition [2]: 115%
Quadrant (FIG. 5b) [3]: Q2
LPS % cell toxicity (primary rat microglia): 46%

C[C@H](N[C@@H](CCc1ccccc1)C(=O)O)C(=O)N1CCC[C@H]1C(=O)O [Enalaprilat]
Fibrin % inhibition ([1]; primary microglia HTS, fibrin stimulation, compounds at 10 μM): 25%
LPS % inhibition ([2]; primary microglia HTS, LPS stimulation, compounds at 10 μM): 18%
Quadrant (FIG. 5b) [3, 7]: Q4
LPS % cell toxicity (primary rat microglia): 0%

CC1(C)[C@@H](O)CC[C@]2(C)[C@H]3C(=O)C=C4[C@@H]5C[C@@](C)(C(=O)O)CC[C@]5(C)CC[C@@]4(C)[C@]3(C)CC[C@@H]12 [Enoxolone]
inhibition at 10 µM [1, 5]: -40%
inhibition at 10 µM [2, 6]: 7%
Quadrant (FIG. 5b) [3, 7]: Q4
LPS % cell toxicity (primary rat microglia; rat): 0%

CCN1CCN(c2cc3c(cc2F)c(=O)c(C(=O)O)cn3C2CC2)CC1 [Enrofloxacin]
inhibition at 10 µM [1, 5]: 5%
inhibition at 10 µM [2, 6]: 23%
Quadrant (FIG. 5b) [3, 7]: Q4
LPS % cell toxicity (primary rat microglia; rat): 1%

CCc1cc(C(N)=S)ccn1 [Ethionamide]
inhibition at 10 µM ([1]; Rattus norvegicus, Microglia): 17%
inhibition at 10 µM [2, 4]: 14%
Quadrant (FIG. 5b) [3]: Q4
LPS % cell toxicity (primary rat microglia; rat): 0%

C#C[C@]1(O)CC[C@H]2[C@@H]3CCC4=CC(=O)CC[C@]4(C)[C@H]3CC[C@@]21C [Ethisterone]
inhibition at 10 µM [1, 5]: -5%
inhibition at 10 µM [2, 6]: 13%
Quadrant (FIG. 5b) [3, 7]: Q4
LPS % cell toxicity (primary rat microglia; rat): 1%

COc1cc([C@@H]2c3cc4c(cc3[C@@H](O[C@@H]3O[C@@H]5CO[C@@H](C)O[C@H]5[C@H](O)[C@H]3O)[C@H]3COC(=O)[C@H]23)OCO4)cc(OC)c1O [Etoposide]
inhibition at 10 µM [1, 5]: 30%
inhibition at 10 µM [2, 6]: 15%
Quadrant (FIG. 5b) [3, 7]: Q4
LPS % cell toxicity (primary rat microglia; rat): 0%

COCCCC/C(=N\OCCN)c1ccc(C(F)(F)F)cc1 [Fluvoxamine]
inhibition at 10 µM [1, 8]: -8%
inhibition at 10 µM [2, 9]: -3%
Quadrant (FIG. 5b) [3, 10]: Q4
LPS % cell toxicity (primary rat microglia; rat): 0%

COc1ccc(Cl)cc1C(=O)NCCc1ccc(S(=O)(=O)NC(=O)NC2CCCCC2)cc1 [Glibenclamide, Glyburide]
Fibrin % inhibition ([1]; primary microglia HTS, fibrin stimulation, activation = cell size >800 μm2): −23%
LPS % inhibition ([2]; primary microglia HTS, LPS stimulation, activation = cell size >800 μm2): 8%
Quadrant (FIG. 5b) [3, 10]: Q4
LPS % cell toxicity (primary rat microglia): 0%

NCCc1c[nH]cn1 [Histamine]
inhibition at 10 µM ([1]; Rattus norvegicus, Microglia): 21%
inhibition at 10 µM [2, 11]: 27%
Quadrant (FIG. 5b) [3]: Q4
LPS % cell toxicity (primary rat microglia; rat): 0%

NC(=O)NO [Hydroxyurea]
inhibition at 10 µM [1, 8]: 1%
inhibition at 10 µM [2, 9]: 25%
Quadrant (FIG. 5b) [3, 10]: Q4
LPS % cell toxicity (primary rat microglia; rat): 1%

O=P1(NCCCl)OCCCN1CCCl (centres unmarked) [Ifosfamide]
inhibition at 10 µM [1, 8]: -11%
inhibition at 10 µM [2, 9]: 10%
Quadrant (FIG. 5b) [3, 10]: Q4
LPS % cell toxicity (primary rat microglia; rat): 0%

O=C1c2c(O)ccc(O)c2C(=O)c2c(NCCNCCO)ccc(NCCNCCO)c21 [Mitoxantrone]
inhibition at 10 µM [1, 5]: 113%
inhibition at 10 µM [2, 6]: 122%
Quadrant (FIG. 5b) [3, 12]: Q2
LPS % cell toxicity (primary rat microglia; rat): 40%

COCCOC(=O)C1=C(C)NC(C)=C(C(=O)OC(C)C)C1c1cccc([N+](=O)[O-])c1 (centres unmarked) [Nimodipine]
inhibition at 10 µM [1, 13]: -6%
inhibition at 10 µM [2, 14]: 2%
Quadrant (FIG. 5b) [3, 10]: Q4
LPS % cell toxicity (primary rat microglia; rat): 0%

CCCCCCCCCCCCCCCC(=O)NCCO [Palmidrol]
inhibition at 10 µM ([1]; Rattus norvegicus, Microglia): -40%
inhibition at 10 µM [2, 11]: 7%
Quadrant (FIG. 5b) [3]: Q4
LPS % cell toxicity (primary rat microglia; rat): 0%

CC(=O)O[C@H]1C[C@@H]2CC[C@@H]3[C@H](CC[C@@]4(C)[C@H]3C[C@H]([N+]3(C)CCCCC3)[C@@H]4OC(C)=O)[C@@]2(C)C[C@@H]1[N+]1(C)CCCCC1 [Pancuronium Bromide]
Fibrin % inhibition [1, 15]: 9%
LPS % inhibition [2, 16]: 11%
Quadrant (FIG. 5b) [3, 10]: Q4
LPS % cell toxicity (primary rat microglia; rat): 0%

CC(=O)O[C@H]1C[C@@H]2CC[C@@H]3[C@H](CC[C@@]4(C)[C@H]3C[C@H]([N+]3(C)CCCCC3)[C@@H]4OC(C)=O)[C@@]2(C)C[C@@H]1[N+]1(C)CCCCC1 [Pancuronium]
Fibrin % inhibition [1, 15]: −4%
LPS % inhibition [2, 16]: 1%
Quadrant (FIG. 5b) [3, 10]: Q4
LPS % cell toxicity (primary rat microglia; rat): 0%

CC(C)(CO)[C@@H](O)C(=O)NCCC(=O)O [Pantothenic Acid]
inhibition at 10 µM [1, 13]: 7%
inhibition at 10 µM [2, 14]: 5%
Quadrant (FIG. 5b) [3, 10]: Q4
LPS % cell toxicity (primary rat microglia; rat): 1%

CCN1CCN(C(=O)N[C@@H](C(=O)N[C@@H]2C(=O)N3[C@@H]2SC(C)(C)[C@@H]3C(=O)O)c2ccccc2)C(=O)C1=O [Piperacillin Sodium]
inhibition at 10 µM [1, 17]: -25%
inhibition at 10 µM [2, 18]: 17%
Quadrant (FIG. 5b) [3, 19]: Q4
LPS % cell toxicity (primary rat microglia; rat): 0%

CCN1CCN(C(=O)N[C@@H](C(=O)N[C@@H]2C(=O)N3[C@@H]2SC(C)(C)[C@@H]3C(=O)O)c2ccccc2)C(=O)C1=O [Piperacillin]
inhibition at 10 µM [1, 5]: 103%
inhibition at 10 µM [2, 6]: 80%
Quadrant (FIG. 5b) [3, 12]: Q2
LPS % cell toxicity (primary rat microglia; rat): 2%

CC(=O)Oc1cc2c(s1)CCN(C(C(=O)C1CC1)c1ccccc1F)C2 (centres unmarked) [Prasugrel]
inhibition at 10 µM [1, 17]: 15%
inhibition at 10 µM [2, 18]: 22%
Quadrant (FIG. 5b) [3, 19]: Q4
LPS % cell toxicity (primary rat microglia; rat): 1%

CC(C)c1cccc(C(C)C)c1O [Propofol]
inhibition at 10 µM ([1]; Rattus norvegicus, Microglia): -18%
inhibition at 10 µM [2, 11]: 11%
Quadrant (FIG. 5b) [3]: Q4
LPS % cell toxicity (primary rat microglia; rat): 0%

CC(C)NCC(O)COc1cccc2ccccc12 (centres unmarked) [Propranolol]
Fibrin % inhibition [1]: −30%
inhibition at 10 µM [2, 11]: 2%
Quadrant (FIG. 5b) [3]: Q4
LPS % cell toxicity (primary rat microglia; rat): 0%

OCCOCCN1CCN(C2=Nc3ccccc3Sc3ccccc32)CC1 [Quetiapine]
inhibition at 10 µM ([1]; Rattus norvegicus, Microglia): -2%
inhibition at 10 µM [2, 11]: 13%
Quadrant (FIG. 5b) [3]: Q4
LPS % cell toxicity (primary rat microglia; rat): 0%

CCC1NC(=O)c2cc(S(N)(=O)=O)c(Cl)cc2N1 (centres unmarked) [Quinethazone]
inhibition at 10 µM [1, 17]: 15%
inhibition at 10 µM [2, 18]: 17%
Quadrant (FIG. 5b) [3, 19]: Q4
LPS % cell toxicity (primary rat microglia; rat): 1%

CNCC(O)c1ccc(O)c(O)c1 (centres unmarked) [Racepinephrine]
inhibition at 10 µM ([1]; Rattus norvegicus, Microglia): 27%
inhibition at 10 µM [2, 11]: 29%
Quadrant (FIG. 5b) [3]: Q4
LPS % cell toxicity (primary rat microglia; rat): 0%

CC(Cc1ccccc1)(NC(=O)CN)c1ccccc1 (centres unmarked) [Remacemide Hydrochloride]
inhibition at 10 µM ([1]; Rattus norvegicus, Microglia): -21%
inhibition at 10 µM [2, 11]: 13%
Quadrant (FIG. 5b) [3]: Q4
LPS % cell toxicity (primary rat microglia; rat): 0%

NC(=O)c1ncn([C@@H]2O[C@H](CO)[C@@H](O)[C@H]2O)n1 [Ribavirin, reference compound]
pIC50 ([1]; Rattus norvegicus, Microglia, 48 h, read-out: Fibrin IC50): 6.00
inhibition at 10 µM ([1]; Rattus norvegicus, Microglia): 102%
IC50 ([1]; Rattus norvegicus, Microglia, read-out: Fibrin IC50 (uM)): 1 µM
IC50 ([1]; Rattus norvegicus, Microglia, read-out: Fibrin IC50 (uM) (Suppl. Table 7)): 1 µM
inhibition at 10 µM [2, 11]: 107%
pIC50 ([2]; Rattus norvegicus, Microglia, 48 h, read-out: LPS IC50): 5.70
IC50 ([2]; Rattus norvegicus, Microglia, read-out: LPS IC50 (uM)): 2 µM
IC50 ([2]; Rattus norvegicus, Microglia, read-out: LPS IC50 (uM) (Suppl. Table 7)): 2 µM
Quadrant (FIG. 5b) [3]: Q2
inhibition at 10 µM ([3]; read-out: Cherry-picked Hit (Suppl. Table 7)): > 50%
inhibition at 10 µM ([3]; read-out: Hit): > 50%
LPS % cell toxicity (primary rat microglia; rat): 3%

CCCN(CCC)CCc1cccc2c1CC(=O)N2 [Ropinirole]
inhibition at 10 µM ([1]; Rattus norvegicus, Microglia): -26%
inhibition at 10 µM [2, 11]: 15%
Quadrant (FIG. 5b) [3]: Q4
LPS % cell toxicity (primary rat microglia; rat): 0%

CCCc1nn(C)c2c(=O)[nH]c(-c3cc(S(=O)(=O)N4CCN(C)CC4)ccc3OCC)nc12 [Sildenafil, Sildenafil Citrate]
Fibrin % inhibition ([1]; primary microglia HTS, fibrin stimulation, cell size >800 μm2 as marker of activation): 22%
LPS % inhibition [2]: 20%
Quadrant (FIG. 5b) [3, 19]: Q4
LPS % cell toxicity (primary rat microglia): 0%

O=C(O[C@H]1CN2CCC1CC2)N1CCc2ccccc2[C@@H]1c1ccccc1 [Solifenacin Succinate]
inhibition at 10 µM [1, 17]: -2%
inhibition at 10 µM [2, 18]: -4%
Quadrant (FIG. 5b) [3, 19]: Q4
LPS % cell toxicity (primary rat microglia; rat): 0%

C1CCN2C[C@@H]3C[C@@H](CN4CCCC[C@@H]34)[C@H]2C1 [Sparteine Sulfate]
inhibition at 10 µM [1, 17]: 7%
inhibition at 10 µM [2, 18]: 20%
Quadrant (FIG. 5b) [3, 19]: Q4
LPS % cell toxicity (primary rat microglia; rat): 0%

CSc1ccc2c(c1)N(CCC1CCCCN1C)c1ccccc1S2 (centres unmarked) [Thioridazine hydrochloride, reference compound]
inhibition at 10 µM ([1]; Rattus norvegicus, Microglia): 116%
inhibition at 10 µM [2, 11]: 118%
Activity [3]: fib/LPS
Quadrant (FIG. 5b) [3]: Q2
LPS % cell toxicity (primary rat microglia; rat): 73%
